Laboratory results taken from ChEMBL document CHEMBL5463729, “Data for DCP probe BAY 1753011” (2023).
Blank lines part the entries; values can stand above or below the molecule they belong to.

Columns and labels:
Vasopressin V2 receptor = Vasopressin V2 receptor (Homo sapiens, UniProt P30518); test: Inhibition of Vasopressin V2 at 10 µM in the Eurofins-Panlabs radioligand binding assay (Eurofins_assay_287610); set-up: ligand concentration 4 nM; details: Compound concentration 10.0 uM
[1] = target: T1, Alpha-1A adrenergic receptor (Homo sapiens) (UniProt P35348); test: Inhibition of Adrenergic alpha1A at compound concentration of 10.0 uM in the Eurofins-Panlabs radioligand binding assay (Eurofins_assay_203110); set-up: ligand concentration 0.25 nM; details: Rattus norvegicus; Compound concentration 10.0 uM
T1 sequence (whole entry): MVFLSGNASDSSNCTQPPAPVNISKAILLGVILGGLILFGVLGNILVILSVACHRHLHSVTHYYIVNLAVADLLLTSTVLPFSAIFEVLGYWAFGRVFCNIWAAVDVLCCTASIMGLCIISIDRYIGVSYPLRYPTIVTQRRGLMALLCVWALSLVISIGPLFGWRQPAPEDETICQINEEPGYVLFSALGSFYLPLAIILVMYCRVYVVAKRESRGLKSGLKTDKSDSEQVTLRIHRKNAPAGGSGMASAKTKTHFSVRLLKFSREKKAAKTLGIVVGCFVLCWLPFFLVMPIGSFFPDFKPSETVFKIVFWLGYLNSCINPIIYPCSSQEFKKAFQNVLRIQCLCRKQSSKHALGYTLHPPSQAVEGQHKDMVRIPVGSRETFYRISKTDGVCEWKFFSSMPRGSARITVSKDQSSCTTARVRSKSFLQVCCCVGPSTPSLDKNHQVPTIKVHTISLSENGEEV

[2] = target: Purinergic P2Y (Rattus norvegicus) (UniProt O35811+Q9EPX4+P49651+Q63371+P41232+O35881+Q6GUG4); test: Inhibition of Purinergic P2Y at compound concentration of 10.0 uM in the Eurofins-Panlabs radioligand binding assay (Eurofins_assay_268820); format: protein assay; set-up: ligand concentration 0.1 nM; details: Compound concentration 10.0 uM
[3] = target: Calcium/calmodulin-dependent protein kinase type II subunit delta (Homo sapiens) (UniProt Q13557); test: Inhibition of CaMKIIdelta(h) at 10.0 µM in the Eurofins Kinase panel; details: Compound concentration 10.0 uM
[4] = target: Cyclin-dependent kinase-like 2 (Homo sapiens) (UniProt Q92772); test: Inhibition of CDKL2(h) at 10.0 µM in the Eurofins Kinase panel; details: Compound concentration 10.0 uM
[5] = target: Serine/threonine-protein kinase Nek1 (Homo sapiens) (UniProt Q96PY6); test: Inhibition of NEK1(h) at 10.0 µM in the Eurofins Kinase panel; details: Compound concentration 10.0 uM
[6] = target: Platelet-derived growth factor receptor alpha (Homo sapiens) (UniProt P16234); test: Inhibition of PDGFRalpha(h) at 10.0 µM in the Eurofins Kinase panel; details: Compound concentration 10.0 uM
[7] = target: GABA-A receptor; anion channel (Rattus norvegicus) (UniProt O09028+P15431+P18506+P18508+P19969+P20236+P23574+P23576+P28471+P28473+P30191+P62813+P63079+P63138+Q91ZM7+Q9ES14); details: Compound concentration 10.0 uM
Rattus norvegicus [8] = species on record: Rattus norvegicus; details: Compound concentration 10.0 uM
[9] = target: Type-1 angiotensin II receptor (Homo sapiens) (UniProt P30556); details: Compound concentration 10.0 uM
[10] = target: Melatonin receptor type 1A (Homo sapiens) (UniProt P48039); test: Inhibition of Melatonin MT1 at 10 µM in the Eurofins-Panlabs radioligand binding assay (Eurofins_assay_251600); set-up: ligand concentration 0.05 nM; details: Compound concentration 10.0 uM
[11] = target: voltage-gated sodium channel, site 2 (Rattus norvegicus, UniProt F1LQQ7+O08562+O88420+O88457+P04774+P04775+P08104+P15389+P15390+Q62968); test: Inhibition of Sodium Channel, Site 2 at 10 µM in the Eurofins-Panlabs radioligand binding assay (Eurofins_assay_279510); format: protein assay; set-up: ligand concentration 5 nM, non-specific ligand with concentration 100 µM Veratridine, incubation time 60 min, incubation temperature 37 °C; details: male, Wistar, rat whole brain (except cerebellum) membranes, probe [3H] Batrachotoxinin, compound concentration 10 uM
Rattus norvegicus [12] = species on record: Rattus norvegicus; test: Inhibition of Thyroid Hormone at 10 µM in the Eurofins-Panlabs radioligand binding assay (Eurofins_assay_285900); format: protein assay; details: Compound concentration 10.0 uM
[13] = target: Carbonic anhydrase 2 (Homo sapiens) (UniProt P00918); test: Inhibition of Carbonic Anhydrase II at compound concentration of 10.0 uM in the Eurofins-Panlabs enzyme assay (Eurofins_assay_112020); set-up: substrate with concentration; details: Compound concentration 10.0 uM
[14] = target: Polyunsaturated fatty acid lipoxygenase ALOX15 (Homo sapiens) (UniProt P16050); test: Inhibition of Lipoxygenase 15-LO at 10 µM in the Eurofins-Panlabs enzyme assay (Eurofins_assay_138000); details: Oryctolagus cuniculus; Compound concentration 10.0 uM
[15] = target: C-C chemokine receptor type 2 (Homo sapiens) (UniProt P41597); test: Inhibition of Chemokine CCR2B at 10 µM in the Eurofins-Panlabs radioligand binding assay (Eurofins_assay_217550); details: Compound concentration 10.0 uM
[16] = target: Melanocortin receptor 3 (Homo sapiens) (UniProt P41968); test: Inhibition of Melanocortin MC3 at 10 µM in the Eurofins-Panlabs radioligand binding assay (Eurofins_assay_251300); set-up: ligand concentration 0.035 nM; details: Compound concentration 10.0 uM
[17] = Inhibition of Platelet-Derived Growth Factor (PDGF) at 10 µM in the Eurofins-Panlabs radioligand binding assay (Eurofins_assay_265200); details: Compound concentration 10 uM; Detection method Radioligand Binding; Incubation temperature 25 °C; Incubation time 45 min; Ligand [3H]PDGF; Ligand concentration 0.02 nM; Non-specific ligand with concentration 10 nM PDGF; Source of protein Swiss mouse 3T3 embryo cells
Homo sapiens = species on record: Homo sapiens; test: Inhibition of Tumor Necrosis Factor (TNF), Non-Selective at 10 µM in the Eurofins-Panlabs radioligand binding assay (Eurofins_assay_286510); details: Compound concentration 10.0 uM
[18] = target: Tyrosine-protein kinase Fer (Homo sapiens) (UniProt P16591); test: Inhibition of Fer(h) at 10.0 µM in the Eurofins Kinase panel; details: Compound concentration 10.0 uM
[19] = target: T2, Muscarinic acetylcholine receptor M1 (Homo sapiens) (UniProt P11229); details: Compound concentration 10.0 uM
T2 sequence (whole entry): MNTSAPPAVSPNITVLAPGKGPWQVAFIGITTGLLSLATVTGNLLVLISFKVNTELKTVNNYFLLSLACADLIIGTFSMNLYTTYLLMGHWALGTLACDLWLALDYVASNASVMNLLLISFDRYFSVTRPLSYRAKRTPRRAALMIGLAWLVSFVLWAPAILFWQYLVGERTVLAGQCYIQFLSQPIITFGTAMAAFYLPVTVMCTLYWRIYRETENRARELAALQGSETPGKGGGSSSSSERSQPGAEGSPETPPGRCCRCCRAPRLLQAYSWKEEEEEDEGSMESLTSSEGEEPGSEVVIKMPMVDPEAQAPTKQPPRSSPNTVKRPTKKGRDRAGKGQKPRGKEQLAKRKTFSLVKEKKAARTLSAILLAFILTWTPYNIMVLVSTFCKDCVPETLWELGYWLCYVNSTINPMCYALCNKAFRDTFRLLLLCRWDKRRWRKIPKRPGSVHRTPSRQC

[20] = target: cGMP-specific 3',5'-cyclic phosphodiesterase (Homo sapiens) (UniProt O76074); details: Compound concentration 10.0 uM

Chain of Serine/threonine-protein kinase Nek1 (Homo sapiens) (Q96PY6 whole entry): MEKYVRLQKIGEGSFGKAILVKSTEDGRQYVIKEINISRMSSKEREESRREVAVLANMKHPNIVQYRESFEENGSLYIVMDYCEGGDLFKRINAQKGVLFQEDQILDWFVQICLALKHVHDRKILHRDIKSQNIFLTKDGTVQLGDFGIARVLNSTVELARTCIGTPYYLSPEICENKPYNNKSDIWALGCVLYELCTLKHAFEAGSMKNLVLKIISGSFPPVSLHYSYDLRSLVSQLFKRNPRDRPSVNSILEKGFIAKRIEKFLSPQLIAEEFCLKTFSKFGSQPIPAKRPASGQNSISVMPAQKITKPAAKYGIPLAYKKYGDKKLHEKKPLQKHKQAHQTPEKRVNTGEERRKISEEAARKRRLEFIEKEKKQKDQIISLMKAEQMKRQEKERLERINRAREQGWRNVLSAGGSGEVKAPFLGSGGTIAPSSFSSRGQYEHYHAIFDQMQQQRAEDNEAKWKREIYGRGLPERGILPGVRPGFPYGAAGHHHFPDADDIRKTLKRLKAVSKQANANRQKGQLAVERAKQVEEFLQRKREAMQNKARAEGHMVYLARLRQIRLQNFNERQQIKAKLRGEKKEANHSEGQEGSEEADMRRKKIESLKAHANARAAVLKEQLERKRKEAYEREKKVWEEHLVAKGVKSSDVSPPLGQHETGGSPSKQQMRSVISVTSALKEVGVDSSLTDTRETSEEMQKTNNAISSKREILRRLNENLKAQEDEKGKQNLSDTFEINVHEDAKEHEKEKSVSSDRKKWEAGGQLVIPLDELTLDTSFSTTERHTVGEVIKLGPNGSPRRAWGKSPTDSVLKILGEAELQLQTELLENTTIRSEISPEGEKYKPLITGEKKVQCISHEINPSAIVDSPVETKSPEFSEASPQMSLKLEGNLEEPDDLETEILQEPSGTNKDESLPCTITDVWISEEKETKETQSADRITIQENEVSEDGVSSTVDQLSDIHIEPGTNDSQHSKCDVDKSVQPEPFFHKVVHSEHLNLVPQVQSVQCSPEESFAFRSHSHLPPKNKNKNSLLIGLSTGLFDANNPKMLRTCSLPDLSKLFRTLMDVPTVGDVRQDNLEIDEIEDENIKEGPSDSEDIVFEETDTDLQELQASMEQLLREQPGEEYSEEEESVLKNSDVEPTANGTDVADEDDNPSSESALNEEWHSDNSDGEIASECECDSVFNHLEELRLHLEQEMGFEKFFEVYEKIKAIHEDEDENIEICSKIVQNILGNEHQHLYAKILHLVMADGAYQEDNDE
Chain of Vasopressin V2 receptor (P30518 whole entry): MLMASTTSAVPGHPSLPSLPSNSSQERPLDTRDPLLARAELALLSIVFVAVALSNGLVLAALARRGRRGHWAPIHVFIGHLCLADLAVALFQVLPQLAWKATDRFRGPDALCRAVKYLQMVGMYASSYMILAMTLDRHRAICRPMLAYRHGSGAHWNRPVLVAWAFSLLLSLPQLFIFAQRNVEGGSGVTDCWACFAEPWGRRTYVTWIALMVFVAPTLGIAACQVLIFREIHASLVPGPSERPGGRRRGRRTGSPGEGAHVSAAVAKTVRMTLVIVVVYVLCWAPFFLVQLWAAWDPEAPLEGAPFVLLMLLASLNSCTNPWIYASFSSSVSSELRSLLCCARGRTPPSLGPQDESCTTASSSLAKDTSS
Chain of Platelet-derived growth factor receptor alpha (Homo sapiens) (P16234 whole entry): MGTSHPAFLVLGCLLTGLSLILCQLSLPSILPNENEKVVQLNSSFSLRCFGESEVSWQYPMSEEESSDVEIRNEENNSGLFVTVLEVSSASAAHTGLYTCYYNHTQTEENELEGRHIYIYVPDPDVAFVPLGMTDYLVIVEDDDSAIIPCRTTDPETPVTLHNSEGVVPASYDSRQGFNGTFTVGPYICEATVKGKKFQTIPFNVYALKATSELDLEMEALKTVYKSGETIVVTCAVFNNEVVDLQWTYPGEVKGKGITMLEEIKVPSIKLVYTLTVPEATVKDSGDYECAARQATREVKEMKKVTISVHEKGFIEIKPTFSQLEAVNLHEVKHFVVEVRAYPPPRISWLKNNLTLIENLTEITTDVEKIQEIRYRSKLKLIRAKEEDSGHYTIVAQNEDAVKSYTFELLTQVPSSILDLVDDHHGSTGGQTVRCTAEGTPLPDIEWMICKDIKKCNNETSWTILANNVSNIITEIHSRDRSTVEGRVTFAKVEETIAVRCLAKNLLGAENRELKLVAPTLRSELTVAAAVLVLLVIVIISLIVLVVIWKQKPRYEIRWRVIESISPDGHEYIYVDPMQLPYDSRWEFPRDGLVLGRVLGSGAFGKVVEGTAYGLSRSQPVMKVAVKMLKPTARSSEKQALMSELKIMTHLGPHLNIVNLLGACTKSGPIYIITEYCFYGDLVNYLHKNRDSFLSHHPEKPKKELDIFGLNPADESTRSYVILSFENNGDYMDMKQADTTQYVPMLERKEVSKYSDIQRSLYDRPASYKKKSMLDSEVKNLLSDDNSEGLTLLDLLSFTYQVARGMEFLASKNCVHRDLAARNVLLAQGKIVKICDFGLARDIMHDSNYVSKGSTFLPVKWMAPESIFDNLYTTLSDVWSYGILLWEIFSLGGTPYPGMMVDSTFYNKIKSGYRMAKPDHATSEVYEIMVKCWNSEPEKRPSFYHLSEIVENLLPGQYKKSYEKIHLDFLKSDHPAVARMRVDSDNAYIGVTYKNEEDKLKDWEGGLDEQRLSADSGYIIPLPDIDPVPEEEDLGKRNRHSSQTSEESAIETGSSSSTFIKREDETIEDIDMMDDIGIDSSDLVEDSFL
Chain of Cyclin-dependent kinase-like 2 (Homo sapiens) (Q92772 whole entry): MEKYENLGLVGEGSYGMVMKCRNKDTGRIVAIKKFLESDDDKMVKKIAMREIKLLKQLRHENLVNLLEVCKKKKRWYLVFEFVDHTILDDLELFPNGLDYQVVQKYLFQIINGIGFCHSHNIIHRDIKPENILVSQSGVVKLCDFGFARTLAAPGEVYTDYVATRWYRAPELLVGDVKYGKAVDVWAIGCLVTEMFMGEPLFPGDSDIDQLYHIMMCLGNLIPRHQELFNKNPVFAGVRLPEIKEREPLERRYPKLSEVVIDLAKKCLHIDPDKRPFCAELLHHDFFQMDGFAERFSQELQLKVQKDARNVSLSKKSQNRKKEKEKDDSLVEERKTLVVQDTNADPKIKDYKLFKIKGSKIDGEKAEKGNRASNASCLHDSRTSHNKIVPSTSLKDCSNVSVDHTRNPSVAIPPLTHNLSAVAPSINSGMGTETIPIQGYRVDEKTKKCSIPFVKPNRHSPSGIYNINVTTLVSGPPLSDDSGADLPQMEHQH
Chain of C-C chemokine receptor type 2 (Homo sapiens) (P41597 whole entry, looked up): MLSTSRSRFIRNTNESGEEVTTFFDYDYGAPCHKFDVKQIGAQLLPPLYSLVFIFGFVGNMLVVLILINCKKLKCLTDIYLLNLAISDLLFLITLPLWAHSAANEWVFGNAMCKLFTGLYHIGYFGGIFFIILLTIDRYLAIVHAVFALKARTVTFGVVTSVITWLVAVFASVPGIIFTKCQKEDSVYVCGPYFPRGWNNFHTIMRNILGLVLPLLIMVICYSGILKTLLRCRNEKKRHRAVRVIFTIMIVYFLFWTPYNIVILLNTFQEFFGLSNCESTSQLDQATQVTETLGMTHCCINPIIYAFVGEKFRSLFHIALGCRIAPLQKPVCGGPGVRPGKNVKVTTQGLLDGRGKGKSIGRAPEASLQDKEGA
Chain of Tyrosine-protein kinase Fer (Homo sapiens) (P16591 whole entry, looked up): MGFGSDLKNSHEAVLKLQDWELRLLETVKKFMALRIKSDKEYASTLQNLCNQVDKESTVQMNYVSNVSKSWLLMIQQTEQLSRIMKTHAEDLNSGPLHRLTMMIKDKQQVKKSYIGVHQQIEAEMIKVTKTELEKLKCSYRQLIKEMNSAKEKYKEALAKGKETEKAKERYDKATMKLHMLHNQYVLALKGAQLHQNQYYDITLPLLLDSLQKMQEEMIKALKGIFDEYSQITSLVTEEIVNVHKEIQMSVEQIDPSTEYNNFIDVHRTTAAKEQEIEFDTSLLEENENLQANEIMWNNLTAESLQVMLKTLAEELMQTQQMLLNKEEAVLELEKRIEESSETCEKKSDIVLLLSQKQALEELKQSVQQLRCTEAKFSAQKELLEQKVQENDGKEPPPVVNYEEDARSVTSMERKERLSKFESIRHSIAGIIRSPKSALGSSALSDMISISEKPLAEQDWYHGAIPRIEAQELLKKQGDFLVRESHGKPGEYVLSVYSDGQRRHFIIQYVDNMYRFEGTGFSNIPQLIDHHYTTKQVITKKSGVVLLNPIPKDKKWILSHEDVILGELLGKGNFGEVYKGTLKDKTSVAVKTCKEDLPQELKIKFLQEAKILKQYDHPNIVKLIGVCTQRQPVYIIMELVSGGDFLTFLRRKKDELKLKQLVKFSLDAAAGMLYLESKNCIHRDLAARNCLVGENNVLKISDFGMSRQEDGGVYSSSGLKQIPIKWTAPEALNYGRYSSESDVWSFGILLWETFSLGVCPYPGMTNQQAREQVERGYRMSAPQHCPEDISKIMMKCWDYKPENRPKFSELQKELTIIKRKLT
Chain of Polyunsaturated fatty acid lipoxygenase ALOX15 (Homo sapiens) (P16050 whole entry): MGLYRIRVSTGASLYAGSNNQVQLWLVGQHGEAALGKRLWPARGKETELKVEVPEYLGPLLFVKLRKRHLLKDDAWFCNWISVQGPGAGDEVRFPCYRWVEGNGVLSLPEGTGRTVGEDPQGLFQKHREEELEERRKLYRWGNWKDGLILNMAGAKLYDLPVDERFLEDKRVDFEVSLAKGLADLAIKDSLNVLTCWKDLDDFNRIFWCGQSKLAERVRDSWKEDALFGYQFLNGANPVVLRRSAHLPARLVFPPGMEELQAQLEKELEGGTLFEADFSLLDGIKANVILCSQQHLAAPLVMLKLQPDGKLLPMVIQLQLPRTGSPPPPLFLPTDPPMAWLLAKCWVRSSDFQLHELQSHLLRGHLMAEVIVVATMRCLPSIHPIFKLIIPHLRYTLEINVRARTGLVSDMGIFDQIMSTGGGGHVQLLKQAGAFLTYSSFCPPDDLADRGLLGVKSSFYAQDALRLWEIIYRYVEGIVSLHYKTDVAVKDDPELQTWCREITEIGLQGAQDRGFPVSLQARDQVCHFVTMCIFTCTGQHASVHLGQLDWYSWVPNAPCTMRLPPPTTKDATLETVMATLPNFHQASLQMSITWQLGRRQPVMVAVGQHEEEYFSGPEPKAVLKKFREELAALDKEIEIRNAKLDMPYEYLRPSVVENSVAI

inhibition (Vasopressin V2 receptor): 29%
inhibition [1]: 3%
inhibition [2]: 4%
inhibition [3]: -4.39%
inhibition [4]: -7.41%
inhibition [5]: 5.54%
inhibition [6]: -5.3%
inhibition [7]: -3.13%
inhibition (Rattus norvegicus [8]): -0.38%
inhibition [9]: -6%
Compound: O=c1n(Cc2cncn2-c2cccc(Cl)c2)nc(-c2ccc(Cl)cc2)n1C[C@H](O)C(F)(F)F

Compound: C[C@H](O)c1nc(Cn2nc(-c3ccc(Cl)cc3)n(C[C@H](O)C(F)(F)F)c2=O)nn1-c1cccc(Cl)c1 [PECAVAPTAN]
inhibition [10]: -6%
inhibition at 60 min, 10 µM [11]: 42% (not active)
inhibition (Rattus norvegicus [12]): 6%
inhibition [13]: -4%
inhibition [14]: 4%
inhibition [15]: 2%
inhibition [16]: 6%
inhibition at 10 µM [17]: 5% (not active)
inhibition (Homo sapiens): -1%
inhibition [18]: -2.1%
inhibition [19]: 4.34%
inhibition [20]: -10%
